Assay: in vitro
Conditions: human, hela cells, % viability

SMILES | viability at 28.5 h, 10 µM [%]
O=S(=O)(Nc1nc(-c2ccccc2Cl)cs1)c1sc(Cl)cc1Br [CBK200028] | 103
O=C(O)c1ccc(CSc2nnnn2-c2ccccc2)cc1 [CBK286726] | 85.1
Cc1cccc(C(=O)Nc2nnc(C3=COCCO3)o2)c1 [CBK287406] | 94
C[C@@H](Nc1nc(-c2ccccc2)cnc1N)c1ccccc1 [CBK063728] | 98.9
Cc1cc(C)c(C)c(CSCc2nc3ccccc3[nH]2)c1C [CBK266466] | 98.8
CCc1nnc(COC(=O)c2ccccc2NC(=O)Cc2ccccc2)o1 [CBK296762] | 81.5
CC1CCC(N(Cc2nnc(C3CCC3)n2C)CC2CCCO2)CC1 (stereo not drawn) [CBK305540] | 97.3
OC1(c2nnsc2-c2ccccc2)CCCC1 [CBK007956] | 90.2
CC(=O)N(C)c1nc(-c2ccccc2C)ccc1C(=O)N(C)C [CBK106350] | 89
CCc1nc(N)nc(N2CCCC3(CN(C)C(=O)O3)C2)c1C (stereo not drawn) [CBK306914] | 86.9
O=S(=O)(Nc1nc(CCNCCO)cs1)c1ccc(Oc2ccccc2)cc1 [CBK034632] | 111
COc1ccc(-c2c(C)nn3c(=O)c(Cc4ccccc4)c(C)[nH]c23)cc1 [CBK266951] | 94.2
Cc1cc(Br)ccc1S(=O)(=O)Nc1nc(-c2c(F)cccc2Cl)cs1 [CBK200026] | 95.6
O=C1NC2(CCNCC2)Oc2ccc(-c3cccnc3)cc21 [CBK086611] | 95.4
Cc1cccc(N2CCN(CCCOc3ccc(F)c(F)c3)CC2)n1 [CBK025158C] | 106
COc1cc2c(cc1OC)CN(Cc1ccc(OCc3ccccc3)c(OC)c1)CC2 [CBK033974] | 93
CCOc1cc(NC2CCN(C(=O)C3CCCC(C)(C)C3)CC2)ncn1 (stereo not drawn) [CBK305547] | 80.9
Cc1cc(C)n(CC(=O)N2CCCCC2C(=O)O)n1 (stereo not drawn) [CBK305266] | 91.3
CC(C)Cc1csc(C2CN3CCCC3CO2)n1 (stereo not drawn) [CBK304807] | 83.9
Cn1cc(C2CCCN2C(=O)Cc2csc3ccccc23)cn1 (stereo not drawn) [CBK305066] | 102
O=CN1CCc2c([nH]c3ccc(F)cc23)C12CCN(Cc1cccc(Oc3ccc(F)cc3)c1)CC2 [CBK040388] | 96.4
Clc1ccc(COc2nccnc2N2CCN(Cc3ccc4c(c3)OCO4)CC2)cc1Cl [CBK083078T] | 109

SMILES | viability at 28.5 h, 10 µM [%]
CN(C)CCNc1nc(-c2cccc3ncccc23)cnc1N [CBK063693] | 102
NC(=O)Nn1c(CCC(=O)O)ccc1-c1cccs1 [CBK266019] | 93.1
O=C(Cc1c[nH]c2ccccc12)N1CCC2(CCCN(C(=O)c3cscn3)C2)C1 (stereo not drawn) [CBK131590] | 99.1
Cc1ccc(SCCNC(=O)C(C)Sc2ccc(Cl)cc2)cc1 (stereo not drawn) [CBK264104] | 93.5
COc1ccc(C)cc1S(=O)(=O)N1CCc2c(CN3CCN(C)CC3)cccc21 [CBK113628T] | 115
COc1ccc(-c2cc(CC3(NCc4ccccc4O)COC3)no2)cc1 [CBK289697] | 91.3
CCOC(=O)c1ccc(/N=C2/NC(=O)/C(=C\c3ccccc3OCC(=O)O)S2)cc1 [CBK265658] | 101
CC(C)(C)c1cc(NC(=O)CSc2ccc(S(=O)(=O)N3CCCC3)cn2)n(-c2ccccc2)n1 [CBK297099] | 89
COc1ccc(-c2cnc(N)c(NCCCN3CCOCC3)n2)c(OC)c1OC [CBK063676] | 113
CCCOC1CCCN(C(=O)c2cc(Cl)c[nH]2)C1 (stereo not drawn) [CBK304802] | 97.5
CC(C)[C@H](CO)n1c(=O)[nH]c2ncc(-c3cccc(CO)c3)nc21 [CBK065001] | 96.1
Cc1cccc(OCCN2C(=O)CC(Cc3cnn(C)c3)C2=O)c1 (stereo not drawn) [CBK304081] | 99.7
COc1ccc(C(O)CNC(C)C)c2c(C)c(C)oc12 (stereo not drawn) [CBK011885C] | 97
CC1Oc2ccc(NC(=O)C3CC4C=CC3C43CC3)cc2NC1=O (stereo not drawn) [CBK281523] | 101
CS(=O)(=O)Nc1ccc(CNC(=O)c2ccccc2Nc2cccc(C(F)(F)F)c2)cc1 [CBK161732] | 85.5
COc1ccc(-c2cc(C(=O)N[C@@H](C)c3ccccc3)cnc2-c2cccc(C)c2)cc1 [CBK036635] | 105
COc1cccc(CCNCC(O)COc2ncnc3ccccc23)c1 (stereo not drawn) [CBK028127T] | 93.1
COc1ccc(O)c(C(=O)c2cnn(-c3ccccn3)c2)c1 [CBK295141] | 97.9
Cc1cc(C(=O)NC(Cn2ccnc2)c2ccccc2)cc(=O)[nH]1 (stereo not drawn) [CBK306818] | 94
O=S(=O)(Nc1nnc(C(F)(F)F)s1)c1ccc(-c2cc(C(F)(F)F)on2)s1 [CBK062019] | 91.1
CN(C)CCNCCCSc1ccc(Cl)cc1 [CBK267794C] | 104
COc1ccc(CN2CCCC(c3nccnc3-c3cccc(NC(C)=O)c3)C2)cc1 (stereo not drawn) [CBK286135] | 104

SMILES | viability at 28.5 h, 10 µM [%]
CC1(C)CC(=O)C2=C(C1)c1onc(N)c1C2Cc1ccccc1 (stereo not drawn) [CBK269206] | 110
COc1ccc(C(NC(=O)c2ccc(C(C)N3CCOCC3)o2)c2ccccc2)cc1 (stereo not drawn) [CBK285748] | 112
CC(C)(CO)CNc1cncc(-c2ccccc2CO)n1 [CBK066088] | 96.3
CCOC(=O)c1cc2c(=O)n3cc(C)ccc3nc2n(Cc2cccnc2)c1=N [CBK263095] | 90.5
Cc1nc(C(Cc2ccsc2)NC(=O)C2CCCNC2)sc1C (stereo not drawn) [CBK282228] | 87.6
COCCNC(=O)CN(C)c1nc2ccccc2[nH]1 [CBK306378] | 84.6
CSc1ccc(SC/C(N)=N/O)cc1 [CBK025411C] | 96.1
CCOc1cccc(NC(=O)/C(C#N)=C\c2cc(OC)c(O)cc2Br)c1 [CBK263189] | 95.2
COc1ccc(Nc2nc(-c3sc(C)nc3C)cs2)c(OC)c1 [CBK267170] | 46.5
N#CCCN(C(=O)NCc1cccnc1)C1CCCCC1 [CBK156355] | 104
Nc1ccccc1NC(=O)NC(=O)c1ccccc1 [CBK022767] | 94
O=C(NC1(c2ccccc2)CC1)c1ccc(-n2cnnc2)cc1 [CBK282778] | 111
COc1ccc(CNC(=O)c2cc(S(=O)(=O)N3CCOCC3)cs2)cc1 [CBK307577] | 95.7
CNC(=O)c1ccc(-c2ccccc2C)nc1NCCOC [CBK106007] | 99.7
O=C(Cc1c(O)c2ccccc2[nH]c1=O)NCc1ccccc1Cl [CBK160320] | 88
Cc1cccc(=O)n1CCCn1cc(-c2ncc[nH]2)nn1 [CBK307401] | 90.7
O=C(CSc1nnc(-c2ccco2)n1-c1ccccc1)NCc1ccc2c(c1)OCO2 [CBK267308] | 85.3
Cc1cc(C)n(C(C)CC(=O)N2CCCCC2CCN2CCCC2)n1 (stereo not drawn) [CBK282078] | 106
O=C(NCCN1CCOCC1)N1CCN(CCc2ccccc2)CC1 [CBK158908] | 85.5
CC(C)(C)c1ccc(S(=O)(=O)N2CCCC[C@H]2COC(=O)COCC(=O)O)cc1 [CBK200064] | 96.6
O=C(CSc1ccc2nnc(-c3cccc(F)c3)n2n1)Nc1nccs1 [CBK287522] | 85.8
CC1CCCCN1C(=O)c1ccc(-n2ccnc2)c(-n2cccc2)c1 (stereo not drawn) [CBK284832] | 95.5

SMILES | viability at 28.5 h, 10 µM [%]
Cc1nn(-c2ccc(N3CCNCC3)nn2)c(=O)c2ccccc12 [CBK270067] | 88.1
O=C(CSc1nnc(COc2ccccc2)n1-c1ccccc1)c1cccs1 [CBK265133] | 99.3
CC(C)NC(=O)[C@@H]1CN(C)C[C@]12CCc1ccccc1C2=O [CBK284764] | 93.8
Cn1c(=O)c2c(nc(CN3CCN(Cc4ccccc4)CC3)n2CCCc2ccccc2)n(C)c1=O [CBK269582] | 90.9
CN1CCN(Cc2nc3c(c(=O)n(C)c(=O)n3C)n2CCc2ccccc2)CC1 [CBK269507] | 96.2
C=C(C)c1cccc(C(C)(C)NC(=O)N2CCC(C(=O)NC(c3ccc(OC)nc3)c3ccccc3C)CC2)c1 (stereo not drawn) [CBK074871] | 92.2
COc1ccc(CN2CCCN(S(=O)(=O)c3ccc(-c4ccccc4)cc3)CC2)cc1F [CBK063108] | 111
CN1CCN(CCC(=O)N/N=C/c2ccc3c(c2)OCO3)CC1 [CBK261498] | 91.5
O=C(COc1ccc(F)cc1)Nc1ccc2[nH]ccc2c1 [CBK159689] | 98.6
CN1CCC(N(C)S(=O)(=O)c2ccc(C(C)(C)C)cc2)C1 (stereo not drawn) [CBK059036T] | 98.5
CCOC(=O)NC(=S)NC(=O)C(C)(C)C [CBK020037] | 100
CSc1nnc(-c2cccs2)n1C [CBK067702] | 87.9
COC(=O)CCCC(=O)n1c(=O)n(CC2CCCCC2)c2ccccc21 [CBK106524] | 112
O=C(O)CC(Cc1ccc(Br)cc1)C(=O)Nc1ccccc1 (stereo not drawn) [CBK262714] | 96.2
Cc1cc(C)c2nc(NC(=O)c3ccc(=O)n(CC(=O)NC4CCCCC4)c3)sc2c1 [CBK285980] | 107
CN1CCN(CCOC(=O)N2CCCC(F)(F)C2)CC1 [CBK200208] | 105
COCCn1c(SCc2cn3c(C)cc(C)nc3n2)nc(C)c1C [CBK306489] | 89.3
CC(=O)NCC1CN(c2ccc3c(c2)CCN3C(=O)OC(C)(C)C)C(=O)O1 (stereo not drawn) [CBK012600] | 99.7
O=C1N=C(NC2CCCCCC2)SC1Cc1nc2ccccc2[nH]1 (stereo not drawn) [CBK066789] | 83.7
Cc1nc2c(C(=O)NCCCOC(C)C)cnn2c(C)c1Cc1cccc(Cl)c1 [CBK162043] | 97.1
CCC1c2ccc(C)n2CCN1Cc1cnc(C)n1C (stereo not drawn) [CBK283038] | 105
O=C(O)CCCC(=O)Nc1cccc([N+](=O)[O-])c1 [CBK261530] | 101

Same assay, conditions: human, hela cells, % viability, bulk resorufin, single well

SMILES | viability at 28.5 h, 10 µM [%]
CSc1cc(C)c2c(c1)COC1(CCN(C(=O)COCC(=O)O)CC1)O2 [CBK060839] | 94.1
CC1CC1C(=O)N1CCC(C#N)(c2ccccc2)CC1 (stereo not drawn) [CBK091402] | 99

From PMC12040169 (PLOS Biology, 2025)
